We go through two compounds from patent US20250282812A1, “ANTIVIRAL NUCLEOSIDE ANALOGUE, AND PHARMACEUTICAL COMPOSITION AND USE THEREOF” (SHANGHAI INSTITUTE OF MATERIA MEDICA , CHINESE ACADEMY OF …, priority 2022, published 2025).

Series [1] has as its system influenza virus (IFV) A/California/07/2009 (H1N1) pdm09 strain. The experiment in a line: In vitro activity against influenza virus (CPE, CCK8, MDCK cells). The following applies: 120 h, read-out: IFV (MDCK) EC50. Type of series: cell-based.
For series [2], the system named is respiratory syncytial virus (RSV) A long strain. The experiment in a line: In vitro activity against respiratory syncytial virus (CPE, CCK8, HEp-2 cells). It counts as cell-based. The following applies: human respiratory syncytial virus, 120 h, MOI=0.02, 5 days.
Series [3] can be described thus: Solubility of compounds in water. The note with it: thermodynamic from solid.
Series [4] is described as follows: Stability test of compounds in solutions at different pH values.
Series [5] can be described thus: Cytotoxicity in HEp-2 cells (CCK8). The following applies: human.
The next series concerns SFTSV-Nluc. The experiment in a line: microbe, parasite or virus in culture. It counts as cell-based, severe fever with thrombocytopenia syndrome virus (SFTSV). The note with it: Severe fever with thrombocytopenia syndrome virus, Vero, 48 h.
The next series is described as follows: in vitro. The note with it: dog.
Series [6] concerns respiratory syncytial virus (RSV A2). The experiment in a line: In vivo efficacy for respiratory syncytial virus (RSV) in mice.
For series [7], the system named is influenza virus Influenza A/PR/8/34 (PR8). The experiment in a line: In vivo efficacy for influenza virus in mice. Details: species or system Balb/C mice.
Setting [8] is: buffered saline solution pH 4.0, 3 h.
Setting [9] is: buffered saline solution pH 4.0, 6 h.
Where [10] appears, read: buffered saline solution pH 4.0, 9 h.
[11] abbreviates: buffered saline solution pH 4.0, 12 h.
[12] abbreviates: buffered saline solution pH 4.0, 15 h.
The mark [13] stands for this setting: buffered saline solution pH 4.0, 18 h.
[14] abbreviates: buffered saline solution pH 4.0, 21 h.
Where [15] appears, read: buffered saline solution pH 4.0, 24 h.
[16] abbreviates: buffered saline solution pH 6.8, 3 h.
Where [17] appears, read: buffered saline solution pH 6.8, 6 h.
Setting [18] is: buffered saline solution pH 6.8, 9 h.
The mark [19] stands for this setting: buffered saline solution pH 6.8, 12 h.
The mark [20] stands for this setting: buffered saline solution pH 6.8, 15 h.
The mark [21] stands for this setting: buffered saline solution pH 6.8, 18 h.
Where [22] appears, read: buffered saline solution pH 6.8, 21 h.
[23] abbreviates: buffered saline solution pH 6.8, 24 h.

In brackets after ≈: the same amount, converted by molar mass.

For the compound `CC(=O)OC[C@@]1(F)O[C@@H](n2ccc(=O)n(COC(=O)c3cccnc3)c2=O)[C@H](OC(C)=O)[C@@H]1OC(C)=O` [Compound X219], the EC50 in [1] is 3.92 µM; in series [2], 2.6 µM; with SFTSV-Nluc, 3.39 µM. In addition, the solubility at 15 min in series [3] came to 700 µg/mL (≈ 1340 µM). The “Content reduction (%)” value in [4] (setting [8]) is listed as 0.22%; in [4] (setting [9]) it was 0.34%; in [4] (setting [10]), 0.44%; in [4] (setting [11]), 0.62%; in series [4] (setting [12]), 0.70%; in series [4] (setting [13]), 0.78%. For the same compound, the “Content reduction (%)” value is reported as 0.93% in series [4] (setting [14]); 1.02% in [4] (setting [15]); 1.06% in [4] (setting [16]); 1.86% in [4] (setting [17]); 2.92% in [4] (setting [18]); 3.96% in series [4] (setting [19]). For the same compound, the “Content reduction (%)” value is listed as 5.27% in series [4] (setting [20]), 6.01% in series [4] (setting [21]), 7.02% in series [4] (setting [22]) and 8.38% in [4] (setting [23]). In addition, the CC50 at 5 days in [5] was more than 10 µM. The inhibition at 10 µM in the series on SFTSV-Nluc (read-out: Inhibition rate (10 μM)) was determined as 91.7%. The CC50 in the series “in vitro” is more than 10 µM.
Turning to `CC(=O)OC[C@@]1(F)O[C@@H](n2ccc(=O)n(COC(=O)c3cccnc3)c2=O)[C@H](OC(C)=O)[C@@H]1OC(C)=O.Cl` [X219 hydrochloride], the “reduction in the pulmonary viral load compared with the vehicle group” value in series [6] (20 mpk intragastric once daily, Day 4) is given as “about 0.7 log10”. The “change in the body weight” value in series [6] (RSV A2-infected BALB/C mice, X219 hydrochloride 20 mpk or X28-1 10 mpk intragastric once daily) was “began to show an increase in the body weight on Day 3”. Besides, the solubility at 15 min in series [3] was 4740 µg/mL. Besides, in series [7] ([…], X219 hydrochloride 10, 20, 30 mpk intragastric once daily, Day 4), the “pulmonary viral load compared with the PR8+vehicle group” value is “significantly reduced”. Besides, the “body weight after 4 days of infection compared with the initial body weight” value in [7] ([…], intragastric once daily Day 0-3, X219 hydrochloride 10, 20 and 30 mpk, favipiravir 200 mpk) was “did not change significantly”. In addition, the “reduction of pulmonary viral load compared with the PR8+vehicle group” value was “greater than 4 log10” in [7] (dose 20 mg/kg intragastric once daily, Day 4) and “greater than 4 log10” in [7] (dose 30 mg/kg intragastric once daily, Day 4). Further, in series [7] (lung tissue, Day 4), the “levels of inflammatory factors (IL-6, IL-8, IL-1B, TNF-α, ISG-15, and TNF-1B) in the lungs compared with the PR8+vehicle group” value is listed as “significantly lower”. In series [7] (pulmonary viral load, Day 4), the “inhibitory effect on virus compared with the positive drug favipiravir (200 mpk)” value is “significantly better”. Also, the “Content reduction (%)” value in series [4] (setting [8]) stood at 0.24%; in series [4] (setting [9]), 0.28%; in series [4] (setting [10]), 0.34%; in series [4] (setting [11]), 0.55%; in [4] (setting [12]), 0.64%; in series [4] (setting [13]), 0.72%. Further, the “Content reduction (%)” value in series [4] (setting [14]) worked out at 0.73%; in series [4] (setting [15]), 0.87%; in [4] (setting [16]), 0.98%; in series [4] (setting [17]), 2.03%; in series [4] (setting [18]), 3.09%; in series [4] (setting [19]), 4.10%. Moreover, the “Content reduction (%)” value in [4] (setting [20]) was found to be 5.13%; in series [4] (setting [21]) it was 6.13%; in series [4] (setting [22]), 7.07%; in series [4] (setting [23]) it was 8.02%.

Broadly, the EC50 is the concentration that produces a half-maximal response. A word on the solubility: it is the concentration that dissolves in the medium under given conditions. High values mean a readily soluble substance, low ones a poorly soluble substance. A word on the inhibition: it is the drop in the measured response relative to a control, in per cent.
